Measurements taken from patent US8673949B2 (Bristol-Myers Squibb Company, priority 2008, dated 2014).
Several values for one entry are separate records, joined by “and”; a condition that tells them apart may be missing. Equal values may be shown once. Read-outs that look alike come from different tables or passages of the source.

Key:
[1] = Brain half-life of epothilone D in rats; format: in vivo; settings: 1 mg/kg, Rat, IV, 1 mpk
Source text: (§1) To calculate an accurate brain half-life for a long half-life compound, measurements need to be taken for several half lives after a single dose.

Tg4510 mice = assay: Morris water maze (MWM) in Tg4510 mice; settings: vs vehicle; for MWM acquisition: locating the hidden platform: tested at 4.5 months; for MWM probe trial % pathlength in target quadrant / MWM probe trial number of platform crossings: probe 18 h after 5 days of training
Protocol: A 10× stock solution was made in 100% ethanol, and diluted just before dosing. Mice were dosed in 3 cohorts and data were combined to give a final N of 12, 9, and 15 for the vehicle, 1 mpk, and 10 mpk groups, respectively. Mice were dosed in a chemical fume hood.
Tg4510 mice were used in this study. […] At 9 weeks (+/−15 days) of age, mice were acclimated to handling with a single mock injection of phosphate buffered saline, performed within a chemical fume hood. The mice were then housed in cages kept within the chemical fume hood for 48 hours. Following the 48-hour period, the mice were transferred to clean cages and brought to a behavioral suite for testing.
Mice were again tested in the MWM after the eighth dose (19 weeks of age+/−15 days) for six days. After behavioral testing, dosing resumed until the animals were 5.5 months of age at the time of harvest.
Mice were tested in Morris water maze (MWM) on two occasions, once prior to dosing, and once two months after dosing began. The second round of water maze testing was performed in another testing room. Mice were acclimated to the experimental room for 2-3 days prior to testing. The mice were placed in a water maze of 1.5 m diameter, with a 16 cm diameter platform placed 0.5-1.0 cm under the surface of the water. The water was made opaque with non-toxic white paint and the water temperature was regulated between 22-25° C.
The mice were given 4 trials per day of up to 90 seconds each with a 10 second rest period on the platform after each trial. […] The testing room rooms each had large external cues to allow the mice to orient as they learned the location of the platform. Mice were placed under a heat lamp to prevent hypothermia after each trial. The interval between trials ranged from 25 to 45 minutes. The mice were tracked using HVS Image Advanced Tracker VP200 software (Buckingham, UK) and the total distance traveled until reaching of the platform was determined.
Statistical analysis for acquisition path length from the five trials involved a repeated measures analysis of variance. […] If the analysis indicated a significant effect of treatment, or a treatment-by-trial interaction, differences between the 1 mpk and 10 mpk groups were compared to the vehicle group using Dunnett's test. The probe pathlengths in each quadrant, and number of platform crossings in each quadrant, were analyzed using Dunnett's test. In all cases, 1 mpk and 10 mpk groups were compared to the vehicle group. All calculations were done in SAS, version 9.1, under the Windows XP Professional operating system.

[2] = Brain half-life of epothilone D in mice; format: in vivo, mouse; settings: for half-life: mouse, brain
Source text: as §1

neurofibrillary tangles = assay: Gallyas silver staining for neurofibrillary tangles in Tg4510 mice; format: in vivo, mouse; settings: cortex and hippocampus, vs vehicle
Protocol: (§2) Mice were euthanized by cervical dislocation at 5. 5 months followed by decapitation. Brains were immediately removed and divided down the midline into two hemispheres. The right hemisphere was placed into 20 mL of 4% paraformaldehyde (prepared fresh on the day of sacrifice) and stored overnight at 4° C. The following day, the brains were transferred to a tube containing 20 mL TBS (pH 7.4, 20 mM TRIS, 100 mM NaCl) and then stored at 4° C. until processing. Right hemispheres were embedded in paraffin, sectioned at 5 microns, and mounted on positively charged glass slides. The slides were dried overnight in a 60° C. oven and stored at room temperature until stained. The left hemispheres were frozen (within 2 minutes) on dry ice.
The Gallyas staining method was used to detect silver-positive neurofibrillary tangles and dystrophic neurites. Paraffin-embedded thin sections (5 microns) mounted on glass slides were deparaffinized and rehydrated via serial incubation in xylene (two times for 10 minutes each), 100% ethanol (two times for 10 minutes each), 95% MeOH/5% H2O2 (30 minutes), 95% ethanol (two times for 5 minutes each), 80% ethanol (two times for 5 minutes each), 50% ethanol (two times for 5 minutes each), and water (two times for 5 minutes each). […]

[3] = Plasma, brain and liver levels of epothilone D after bolus IV in triple transgenic mice; format: in vivo, mouse; settings: bolus IV 5 mpk; for concentration at […]: .33 hr
Source text: as §1

phosphorylated Tau (AT8) = assay: AT8 phosphoTau immunohistochemistry in Tg4510 mice; format: in vivo, mouse
Protocol: as §2
Paraffin-embedded thin sections (5 microns) were deparaffinized and rehydrated to water in 3 changes of xylene, two changes of 100% ethanol, and 1 change of 95% ethanol, followed by rinsing in water. Antigen retrieval was performed by steaming the slides in 10 mM sodium citrate buffer, pH 6.0 for 30 minutes in a Black and Decker Steamer (Model # HS900) and then cooled for 30 minutes. […] After washing in TBS, the signal is detected using a Vectastain ABC Elite Kit (Vector Labs Burlingame, Calif.) for 1 hour followed by detection using the diaminobenzadine reagent from Vector labs. […]

[4] = Plasma, brain and liver levels after oral gavage in C57BL/6 mice; format: in vivo, mouse
Source text: Below, we first report the experimental detail for preparation and isolation of Compound III, and then the biological, in vivo data is described.

[5] = triple transgenic (Oddo et al. 2003), mouse, brain, 5 mg/kg, read-out: Brain conc
[6] = triple transgenic (Oddo et al. 2003), mouse, plasma, 5 mg/kg, read-out: Plasma conc
[7] = mouse, brain, 10 mg/kg, C57BL/6 mice, oral gavage 10 mpk, read-out: Brain conc
[8] = mouse, brain, 35 mg/kg, C57BL/6 mice, oral gavage 35 mpk, read-out: Brain conc
[9] = mouse, plasma, 10 mg/kg, C57BL/6 mice, oral gavage 10 mpk, read-out: Plasma conc
[10] = mouse, plasma, 35 mg/kg, C57BL/6 mice, oral gavage 35 mpk, read-out: Plasma conc

C/C1=C/C[C@@H](/C(C)=C/c2csc(C)n2)OC(=O)C[C@H](O)C(C)(C)C(=O)[C@H](C)[C@@H](O)[C@@H](C)CCC1 [Epothilone D, epothilone D]
half-life [1]: 31 h | MWM acquisition: locating the hidden platform (Tg4510 mice; 1 mpk IP once weekly, p<0.01): able to locate the hidden platform in the MWM more quickly | MWM probe trial % pathlength in target quadrant (Tg4510 mice; 1 mpk IP weekly for 2 months): statistically significant differences in both measures as compared with the vehicle group | MWM probe trial number of platform crossings (Tg4510 mice; 1 mpk IP weekly for 2 months): statistically significant differences in both measures as compared with the vehicle group | MWM acquisition: locating the hidden platform (Tg4510 mice; 10 mpk IP once weekly): trend toward improvement | MWM probe trial % pathlength in target quadrant (Tg4510 mice; 10 mpk IP weekly for 2 months): significantly greater performance compared to the vehicle group | MWM probe trial number of platform crossings (Tg4510 mice; 10 mpk IP weekly for 2 months): not when using the number of platform crossings measure | Half life (brain) ([2]; Mouse, IP, 10 mpk, 10 mg/kg): 37 h and 45 h and 46 h | half-life ([2]; intravenous, oral, intraperitoneal, mice, multiple routes of administration and dosages, read-out: brain half life, average (converted)): 46 h | half-life ([2]; ip, 1 mg/kg, Mouse, IP, 1 mpk, read-out: Half life (brain) (converted)): 44 h | half-life ([2]; ip, 10 mg/kg, Mouse, IP, 10 mpk, read-out: Half life (brain) (converted)): 41 h | half-life ([2]; iv, 5 mg/kg, Mouse, IV, 5 mpk, read-out: Half life (brain) (converted)): 61 h | half-life ([2]; po, 10 mg/kg, Mouse, Oral, 10 mpk, read-out: Half life (brain) (converted)): 46 h | Gallyas silver staining: neurofibrillary tangles (neurofibrillary tangles; 1 mpk IP weekly): much lower levels of neurofibrillary tangles than did vehicle-treated mice | Gallyas silver staining: neurofibrillary tangles (neurofibrillary tangles; 10 mpk IP weekly): trend toward improvement | retention in brain tissue after a single dose [3]: at least 168 h | Plasma conc ([3]; 96 hr): <LLQ (0.6 nM) | Plasma conc ([3]; 168 hr): <LLQ (0.6 nM) | concentration at 24 h ([3]; mouse, liver, 5 mg/kg, below LLQ, read-out: liver levels): < 49 nM | concentration at 0.05 h [3, 5]: 1130 nM | concentration at 0.17 h [3, 5]: 595 nM | concentration at 1 h [3, 5]: 422 nM | concentration at 3 h [3, 5]: 468 nM | concentration at 6 h [3, 5]: 141 nM | concentration at 16 h [3, 5]: 210 nM | concentration at 24 h [3, 5]: 82.7 nM | concentration at 96 h ([3]; triple transgenic (Oddo et al. 2003), mouse, brain, 5 mg/kg, 96 hr, read-out: Brain conc): 25.2 nM | concentration at 168 h ([3]; triple transgenic (Oddo et al. 2003), mouse, brain, 5 mg/kg, 168 hr, read-out: Brain conc): 16.3 nM | concentration at […] [3, 5]: 529 nM | concentration at 0.05 h [3, 6]: 25100 nM | concentration at 0.17 h [3, 6]: 2000 nM | concentration at 1 h [3, 6]: 325 nM | concentration at 3 h [3, 6]: 70 nM | concentration at 6 h [3, 6]: 43 nM | concentration at 16 h [3, 6]: 0.8 nM | concentration at 24 h [3, 6]: 0.9 nM | concentration at […] [3, 6]: 549 nM | AT8 phosphoTau staining, hippocampus CA1 (phosphorylated Tau (AT8); 1 mpk IP weekly, vs vehicle): much less phosphoTau staining | AT8 phosphoTau staining, hippocampus CA1 (phosphorylated Tau (AT8); 10 mpk IP weekly): intermediate levels of phosphoTau staining | Plasma conc ([4]; C57BL/6 mice, oral gavage 10 mpk, 48 hr): (0.1 nM) | Plasma conc ([4]; C57BL/6 mice, oral gavage 10 mpk, 96 hr): (0.1 nM) | Plasma conc ([4]; C57BL/6 mice, oral gavage 35 mpk, 24 hr): (0.5 nM) | concentration at 1 h [4, 7]: 10.6 nM | concentration at 3 h [4, 7]: 7 nM | concentration at 4 h [4, 7]: 9.9 nM | concentration at 8 h [4, 7]: 6.4 nM | concentration at 13 h [4, 7]: 6.3 nM | concentration at 24 h ([4]; mouse, brain, 10 mg/kg, C57BL/6 mice, oral gavage 10 mpk, 24 hr, read-out: Brain conc): 9.1 nM | concentration at 48 h ([4]; mouse, brain, 10 mg/kg, C57BL/6 mice, oral gavage 10 mpk, 48 hr, read-out: Brain conc): 5.4 nM | concentration at 96 h ([4]; mouse, brain, 10 mg/kg, C57BL/6 mice, oral gavage 10 mpk, 96 hr, read-out: Brain conc): 3 nM | concentration at 1 hr [4, 8]: 61.3 nM | concentration at 5 hr [4, 8]: 76.9 nM | concentration at 24 hr ([4]; mouse, brain, 35 mg/kg, C57BL/6 mice, oral gavage 35 mpk, 24 hr, read-out: Brain conc): 118 nM | concentration at 1 h [4, 9]: 15.1 nM | concentration at 3 h [4, 9]: 3.9 nM | concentration at 4 h [4, 9]: 2.5 nM | concentration at 8 h [4, 9]: 1.4 nM | concentration at 13 h [4, 9]: 0.1 nM | concentration at 24 h ([4]; mouse, plasma, 10 mg/kg, C57BL/6 mice, oral gavage 10 mpk, 24 hr, read-out: Plasma conc): 0.2 nM | concentration at 1 hr [4, 10]: 52.7 nM | concentration at 5 hr [4, 10]: 3.6 nM | time brain levels were maintained ([4]; oral dosing 10 and 35 mpk (also IV, Table 2)): more than 24 h
